Data published in patent US20020055528A1, “Artemisinin analogs having antimalarial, antiproliferative, and antitumor activities and chemoselective methods of making the same” (priority 1999, published 2002).

Key:
Assay type in all cases: cell-based
[1] = system: SNB-75; experiment: NCI 60 cell line screen (SRB), CNS Cancer; conditions: PG=0
[2] = system: SR; experiment: NCI 60 cell line screen (SRB), Leukemia
[3] = system: HCT-15; experiment: NCI 60 cell line screen (SRB), Colon Cancer; conditions: PG=0
[4] = system: 786-0; experiment: NCI 60 cell line screen (SRB), Renal Cancer; conditions: for Log10TGI: PG=0
[5] = system: SNB-19; experiment: NCI 60 cell line screen (SRB), CNS Cancer; conditions: PG=0
[6] = system: SN12C; experiment: NCI 60 cell line screen (SRB), Renal Cancer
[7] = system: MCF7; experiment: NCI 60 cell line screen (SRB), Breast Cancer
[8] = system: TK-10; experiment: NCI 60 cell line screen (SRB), Renal Cancer
[9] = system: MB231/ATCC (second line of the wrapped label, with values of its own); experiment: NCI 60 cell line screen (SRB), Breast Cancer
[10] = system: MALME-3M; experiment: NCI 60 cell line screen (SRB), Melanoma; conditions: for Log10TGI: PG=0; for Log10GI50: Table IV (LC50, PG=−50)
[11] = system: MDA-MB-435; experiment: NCI 60 cell line screen (SRB), Breast Cancer
[12] = system: KM12; experiment: NCI 60 cell line screen (SRB), Colon Cancer; conditions: for Log10TGI: PG=0
[13] = system: OVCAR-8; experiment: NCI 60 cell line screen (SRB), Ovarian Cancer
[14] = system: SK-MEL2; experiment: NCI 60 cell line screen (SRB), Melanoma; conditions: PG=0
[15] = system: ACHN; experiment: NCI 60 cell line screen (SRB), Renal Cancer; conditions: PG=0
[16] = system: SW-620; experiment: NCI 60 cell line screen (SRB), Colon Cancer; conditions: for Log10TGI: PG=0
[17] = system: NCI-H23; experiment: NCI 60 cell line screen (SRB), Non-Small Cell Lung Cancer; conditions: PG=0
[18] = system: IGROVI; experiment: NCI 60 cell line screen (SRB), Ovarian Cancer; conditions: for Log10TGI: PG=0
[19] = system: EKVX; experiment: NCI 60 cell line screen (SRB), Non-Small Cell Lung Cancer
[20] = system: NCI/ADR-RES; experiment: NCI 60 cell line screen (SRB), Breast Cancer
[21] = system: HS 578T; experiment: NCI 60 cell line screen (SRB), Breast Cancer; conditions: PG=+50
[22] = system: OVCAR-4; experiment: NCI 60 cell line screen (SRB), Ovarian Cancer
[23] = system: OVCAR-3; experiment: NCI 60 cell line screen (SRB), Ovarian Cancer; conditions: PG=0

C[C@@H]1CC[C@H]2[C@@H](C)C(=O)O[C@@H]3O[C@]4(C)CC[C@@H]1[C@]32OO4 [Artemisinin, artemisinin]
Log10TGI [1]: >−4.00 log10M
Log10TGI ([2]; PG=0): >−4.00 log10M
Log10GI50 ([2]; PG=+50): >−4.00 log10M
Log10GI50 ([2]; Table IV (LC50, PG=−50)): >−4.00 log10M
Log10TGI [3]: >−4.00 log10M
Log10TGI [4]: >−4.00 log10M
Log10GI50 ([4]; PG=+50): >−4.00 log10M
Log10GI50 ([4]; Table IV (LC50, PG=−50)): >−4.00 log10M
Log10TGI [5]: >−4.00 log10M
Log10TGI ([6]; SN12C, PG=0): >−4.00 log10M
Log10GI50 ([6]; SNI2C, PG=+50): −4.21 log10M
Log10GI50 ([6]; Table IV (LC50, PG=−50), SN12C): >−4.00 log10M
Log10TGI ([7]; PG=0): >−4.00 log10M
Log10GI50 ([7]; PG=+50): >−4.00 log10M
Log10GI50 ([7]; Table IV (LC50, PG=−50)): >−4.00 log10M
Log10TGI ([8]; PG=0): >−4.00 log10M
Log10GI50 ([8]; PG=+50): >−4.00 log10M
Log10GI50 ([8]; Table IV (LC50, PG=−50)): >−4.00 log10M
Log10TGI ([9]; PG=0): >−4.00 log10M
Log10GI50 ([9]; PG=+50): >−4.00 log10M
Log10GI50 ([9]; Table IV (LC50, PG=−50)): >−4.00 log10M
Log10TGI [10]: −4.06 log10M
Log10GI50 [10]: >−4.00 log10M
Log10TGI ([11]; MDA-MB-435, PG=0): >−4.00 log10M
Log10GI50 ([11]; MDA-MB−435, PG=+50): >−4.00 log10M
Log10GI50 ([11]; Table IV (LC50, PG=−50), MDA-MB-435): >−4.00 log10M
Log10TGI [12]: >−4.00 log10M
Log10GI50 ([12]; PG=+50): >−4.00 log10M
Log10GI50 ([12]; Table IV (LC50, PG=−50)): >−4.00 log10M
Log10TGI ([13]; PG=0): >−4.00 log10M
Log10GI50 ([13]; PG=+50): >−4.00 log10M
Log10GI50 ([13]; Table IV (LC50, PG=−50)): >−4.00 log10M
Log10TGI [14]: >−4.00 log10M
Log10TGI [15]: >−4.00 log10M
Log10TGI [16]: >−4.00 log10M
Log10TGI [17]: >−4.00 log10M
Log10TGI [18]: >−4.00 log10M
Log10GI50 ([18]; PG=+50): −4.31 log10M
Log10GI50 ([18]; Table IV (LC50, PG=−50)): >−4.00 log10M
Log10TGI ([19]; PG=0): >−4.00 log10M
Log10GI50 ([19]; PG=+50): −4.17 log10M
Log10GI50 ([19]; Table IV (LC50, PG=−50)): >−4.00 log10M

CC(=O)O[C@H]1C(=O)[C@@]2(C)[C@H]([C@H](OC(=O)c3ccccc3)[C@]3(O)C[C@H](OC(=O)[C@H](O)[C@@H](NC(=O)c4ccccc4)c4ccccc4)C(C)=C1C3(C)C)[C@]1(OC(C)=O)CO[C@@H]1C[C@@H]2O [Paclitaxel, paclitaxel, reference compound]
Log10GI50 ([2]; Table IV (LC50, PG=−50)): >−4.00 log10M
Log10TGI ([20]; PG=0): >−4.00 log10M
Log10GI50 ([20]; PG=+50): −8.48 log10M
Log10GI50 ([20]; Table IV (LC50, PG=−50)): >−4.00 log10M
Log10GI50 [21]: <-13.00 log10M
Log10GI50 ([22]; OVCAR-4, PG=+50): −5.00 log10M
Log10TGI ([22]; OVCAR−4, PG=0): −4.19 log10M
Log10GI50 ([22]; Table IV (LC50, PG=−50), OVCAR−4): >−4.00 log10M
Log10TGI [3]: >−4.00 log10M
Log10TGI [4]: >−4.00 log10M
Log10GI50 ([4]; PG=+50): −8.01 log10M
Log10GI50 ([4]; Table IV (LC50, PG=−50)): >−4.00 log10M
Log10TGI [5]: >−4.00 log10M
Log10GI50 ([6]; SNI2C, PG=+50): −9.53 log10M
Log10GI50 ([6]; Table IV (LC50, PG=−50), SN12C): >−4.00 log10M
Log10TGI [23]: −4.55 log10M
Log10GI50 ([7]; PG=+50): −11.69 log10M
Log10GI50 ([7]; Table IV (LC50, PG=−50)): >−4.00 log10M
Log10GI50 ([8]; PG=+50): −7.89 log10M
Log10TGI [10]: −4.46 log10M
Log10GI50 [10]: −4.11 log10M
Log10GI50 ([11]; MDA-MB−435, PG=+50): <-13.00 log10M
Log10TGI [12]: −4.36 log10M
Log10GI50 ([12]; PG=+50): −11.43 log10M
Log10GI50 ([12]; Table IV (LC50, PG=−50)): >−4.00 log10M
Log10GI50 ([13]; PG=+50): −10.75 log10M
Log10GI50 ([13]; Table IV (LC50, PG=−50)): >−4.00 log10M
Log10TGI [15]: −4.90 log10M
Log10TGI [16]: >−4.00 log10M
Log10GI50 ([16]; PG=+50): −11.60 log10M
Log10TGI [18]: −4.19 log10M
Log10GI50 ([18]; PG=+50): −8.61 log10M
Log10GI50 ([18]; Table IV (LC50, PG=−50)): >−4.00 log10M
